According to patent US5068465A, “Pharmaceutically active 3-aryl-2-fluoro-1-olefins” (Merrell Dow Pharmaceuticals Inc., priority 1990, dated 1991):

What was measured:
[1] = test system: monoamine oxidase; conditions: J. Med. Chem., 27, 9 (1984); cited from earlier work
[2] = test system: DBH; conditions: J. Biol. Chem., 259, No. 11, 6925 (1984); cited from earlier work
[3] = test system: dopamine beta-hydroxylase (DBH); assay: time-dependent DBH inhibitory activity (tyramine conversion followed by oxygen uptake, polarographic electrode); format: biochemical; conditions: Concentration 12.9 mM; pH about 5; about 37° C.; ascorbate; tyramine substrate; 0.989 correlation
Procedure: The compounds of this invention are useful as dopamine beta-hydroxylase inhibitors for the treatment of, for instance, hypertension. The dopamine beta-hydroxylase (DBH) inhibitory properties of the compounds of this invention can readily be determined by standard and well known procedures. […] The test compound is added at the desired concentration, and the system is incubated. At different time intervals, tyramine, a substrate of DBH, is introduced to aliquots of the incubated enzyme solution and DBH activity is measured by the method of S. May, et al, J. Biol. Chem. 256, 2258 (1981), where the enzyme-activated conversion of tyramine is followed by monitoring oxygen uptake by means of a polarographic electrode and an oxygen monitor, to determine the level of DBH activity.

| Structure (SMILES) | mechanism-based inhibitors of DBH [2] | other results |
| --- | --- | --- |
| COc1ccc(C(=CF)CN)cc1OC [2-(3,4-dimethoxyphenyl)-3-fluoroallylamine] |  | active as a monoamine oxidase inhibitor [1]: active as a monoamine oxidase inhibitor |
| C=C(Br)Cc1ccc(O)cc1 [2-bromo-3-(4-hydroxyphenyl)-1-propene] | mechanism-based inhibitors of DBH |  |
| C=C(Cl)Cc1ccc(O)cc1 [2-chloro-3-(4-hydroxyphenyl)-1-propene] | mechanism-based inhibitors of DBH |  |
| C=C(F)Cc1ccc(O)cc1 [3-(4-Hydroxyphenyl)-2-Fluoro-1-Propene] |  | t 1/2: time required to reach 50% log activity [3]: 5 min. |
